Assay results published in PubChem BioAssay (NCI).
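A five-concentration, 48-hour dose response in 96-well plates underlies each endpoint, interpolated linearly between surrounding concentrations. Definition used: TGI = concentration required for complete inhibition of growth.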

Legend:
Assay in all cases: NCI tumour cell line growth inhibition, 48 h
[1] = test system: KM12 colon
[2] = test system: SR leukemia
[3] = test system: U251 CNS
[4] = test system: OVCAR-5 ovarian
[5] = test system: NCI-H23 lung
[6] = test system: RPMI-8226 leukemia
[7] = test system: UACC-62 melanoma
[8] = test system: A498 renal
[9] = test system: CAKI-1 renal
[10] = test system: CCRF-CEM leukemia
[11] = test system: SF-268 CNS
[12] = test system: SK-MEL-2 melanoma
[13] = test system: SF-539 CNS
[14] = test system: SK-MEL-28 melanoma
[15] = test system: NCI-H226 lung
[16] = test system: TK-10 renal
[17] = test system: T-47D breast
[18] = test system: RXF 393 renal
[19] = test system: MOLT-4 leukemia
[20] = test system: SNB-75 CNS
[21] = test system: SF-295 CNS
[22] = test system: IGROV1 ovarian
[23] = test system: SK-MEL-5 melanoma
[24] = test system: MCF7 breast
[25] = test system: MDA-MB-435
[26] = test system: UACC-257 melanoma
[27] = test system: A549 NSCLC
[28] = test system: BT-549 breast
[29] = test system: NCI-H460 lung
[30] = test system: HL-60(TB) leukemia
[31] = test system: COLO 205 colon
[32] = test system: MDA-MB-231 breast
[33] = test system: SN12C renal
[34] = test system: NCI/ADR-RES ovarian
[35] = test system: HCT-116 colon
[36] = test system: OVCAR-3 ovarian
[37] = test system: HCC-2998 colon
[38] = test system: UO-31 renal
[39] = test system: HOP-92 NSCLC
[40] = test system: PC-3 prostate
[41] = test system: HS 578T breast
[42] = test system: NCI-H522 lung
[43] = test system: DU-145 prostate
[44] = test system: HT29 colon
[45] = test system: SW-620 colon
[46] = test system: MDA-N
[47] = test system: M14 melanoma
[48] = test system: MALME-3M melanoma
[49] = test system: ACHN renal
[50] = test system: HOP-62 NSCLC
[51] = test system: HCT-15 colon
[52] = test system: OVCAR-8 ovarian
[53] = test system: K-562 leukemia
[54] = test system: 786-0 renal
[55] = test system: OVCAR-4 ovarian
[56] = test system: LOX IMVI melanoma
[57] = test system: SNB-19 CNS
[58] = test system: SK-OV-3 ovarian
[59] = test system: EKVX NSCLC

Measured: TGI

CC(=O)C1=C(c2ccccc2)N(C2OC(CO)C(O)C(O)C2O)C(S)=C(C#N)C1c1ccc(Cl)cc1 (configuration not stated)
59.9 µM: [50]
49.4 µM: [26]
40.4 µM: [17]
37.2 µM: [36]
42 µM: [24]
85.3 µM: [18]
88.7 µM: [39]
51.2 µM: [25]
35.2 µM: [3]
29.2 µM: [12]
58.8 µM: [15]
> 100 µM: [2] | [4] | [5] | [6] | [8] | [10] | [16] | [22] | [27] | [30] | [33] | [34] | [38] | [43] | [44] | [49] | [51] | [52] | [53] | [55] | [57]
35.3 µM: [19]
30.8 µM: [7]
34.1 µM: [56]
48.1 µM: [42]
34.9 µM: [23]
61.8 µM: [32]
34.3 µM: [37]
52.7 µM: [29]
34.5 µM: [45]
50 µM: [13]
78.8 µM: [20]
40.6 µM: [31]
42.2 µM: [40]
73.9 µM: [11]
46.7 µM: [47]
41.6 µM: [14]
50.4 µM: [48]
78.5 µM: [41]
80.6 µM: [54]
30.6 µM: [35]
75 µM: [9]
35.6 µM: [28]
51.5 µM: [46]
99.6 µM: [21]
42.1 µM: [1]

Cc1cc2ncn(C3CCCO3)c2cc1C (configuration not stated)
> 100 µM: [1] | [2] | [3] | [4] | [5] | [6] | [7] | [58] | [9] | [10] | [11] | [12] | [13] | [14] | [15] | [16] | [17] | [18] | [19] | [20] | [21] | [22] | [23] | [24] | [25] | [26] | [27] | [28] | [30] | [31] | [32] | [33] | [34] | [35] | [36] | [37] | [38] | [39] | [40] | [41] | [42] | [43] | [44] | [45] | [46] | [47] | [48] | [49] | [50] | [51] | [59] | [52] | [53] | [54] | [55] | [56] | [57]

COc1ccccc1/C=C1\Sc2scc(-c3ccc(O)c(O)c3)[n+]2C1=O
67.5 µM: [33]
31 µM: [49]
55.8 µM: [13]
32.6 µM: [28]
38.9 µM: [19]
56.9 µM: [18]
7.11 µM: [30]
33.5 µM: [56]
24.8 µM: [42]
64.1 µM: [12]
60.3 µM: [2]
67.1 µM: [46]
32.5 µM: [7]
57.4 µM: [43]
38.4 µM: [39]
8.64 µM: [10]
30.6 µM: [47] | [51]
33.1 µM: [14]
97 µM: [58]
37.2 µM: [31]
31.6 µM: [37] | [45]
38.3 µM: [29]
34.2 µM: [22]
81.3 µM: [55]
86.2 µM: [25]
36.7 µM: [36]
45 µM: [32]
> 100 µM: [1] | [3] | [11] | [15] | [16] | [21] | [27] | [34] | [40] | [41] | [50] | [59] | [52] | [57]
29.2 µM: [54]
91.5 µM: [24]
85.7 µM: [4]
42.1 µM: [53]
29 µM: [9]
70.5 µM: [26]
44.1 µM: [23]
43.2 µM: [38]
41.4 µM: [44]
31.3 µM: [35]
45.2 µM: [6]
42.5 µM: [17]
73.5 µM: [5]

COc1cc(C[C@@H](C)N)cc(OC)c1
98.4 µM: [20]
> 100 µM: [1] | [2] | [3] | [4] | [5] | [6] | [7] | [58] | [8] | [9] | [10] | [11] | [12] | [13] | [14] | [15] | [16] | [17] | [18] | [19] | [21] | [22] | [23] | [24] | [25] | [26] | [27] | [28] | [29] | [30] | [31] | [32] | [33] | [34] | [35] | [36] | [37] | [38] | [40] | [41] | [42] | [43] | [44] | [45] | [46] | [47] | [48] | [49] | [50] | [51] | [52] | [53] | [54] | [55] | [56] | [57]

COC1CC(OC2C(C)OC(OC3C(C)OC(OC4C(C)OC(O[C@H]5CC[C@@]6(C)C(=CC[C@]7(O)[C@@H]6C[C@@H](OC(=O)/C=C(\C)C(C)C)[C@@]6(C)[C@]7(O)CC[C@@]6(O)C(C)=O)C5)CC4OC)CC3OC)CC2OC)OC(C)C1O (some centres not stated)
> 12.5 µM: [1] | [2] | [3] | [4] | [5] | [6] | [7] | [58] | [9] | [10] | [11] | [12] | [13] | [15] | [16] | [17] | [19] | [20] | [21] | [22] | [23] | [24] | [25] | [26] | [27] | [28] | [30] | [31] | [32] | [33] | [34] | [35] | [36] | [37] | [38] | [39] | [40] | [41] | [42] | [43] | [44] | [45] | [46] | [47] | [48] | [49] | [50] | [51] | [59] | [52] | [53] | [54] | [55] | [56] | [57]
